This note sets out measurements from ChEMBL document CHEMBL3991601, “The target landscape of clinical kinase drugs” (Science, 2017).

Activity calls are given as the source filed them. On the calls: in the data inactive means no Kd found up to 30 µM. A value given as a limit tells only on which side of the number the result lay.

Assay [1] deals with MAP kinase-activated protein kinase 3 (Homo sapiens, UniProt Q16644).
For assay [2], the target named is Serine/threonine-protein kinase 38-like (Homo sapiens, UniProt Q9Y2H1).
Assay [3] addresses T1, Long-chain-fatty-acid--CoA ligase 5 (Homo sapiens, UniProt Q9ULC5).
T1 sequence (Q9ULC5 whole entry): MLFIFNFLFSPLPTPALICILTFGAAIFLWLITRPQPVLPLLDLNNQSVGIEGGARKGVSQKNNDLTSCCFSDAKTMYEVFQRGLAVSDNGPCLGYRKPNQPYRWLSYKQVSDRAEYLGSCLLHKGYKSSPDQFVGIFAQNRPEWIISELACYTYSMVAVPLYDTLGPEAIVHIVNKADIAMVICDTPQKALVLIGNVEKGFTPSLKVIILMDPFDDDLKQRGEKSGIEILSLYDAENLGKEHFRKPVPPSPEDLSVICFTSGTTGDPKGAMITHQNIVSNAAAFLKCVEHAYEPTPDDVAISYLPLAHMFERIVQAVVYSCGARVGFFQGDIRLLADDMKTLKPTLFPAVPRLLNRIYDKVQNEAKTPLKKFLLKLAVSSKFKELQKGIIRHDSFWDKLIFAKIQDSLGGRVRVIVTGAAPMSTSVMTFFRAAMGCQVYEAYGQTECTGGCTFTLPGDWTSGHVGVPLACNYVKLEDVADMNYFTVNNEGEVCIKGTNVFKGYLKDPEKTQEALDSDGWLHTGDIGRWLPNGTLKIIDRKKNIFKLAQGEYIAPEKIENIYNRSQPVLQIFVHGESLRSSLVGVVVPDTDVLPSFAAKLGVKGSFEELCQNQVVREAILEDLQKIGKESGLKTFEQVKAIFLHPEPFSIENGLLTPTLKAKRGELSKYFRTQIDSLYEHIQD

The target of assay [4] is Serine/threonine-protein kinase ATR (Homo sapiens, UniProt Q13535).
In assay [5] the target is Serine/threonine-protein kinase N3 (Homo sapiens, UniProt Q6P5Z2).
Assay [6] deals with Serine/threonine-protein kinase PAK 6 (Homo sapiens, UniProt Q9NQU5).
In assay [7] the target is T2, Isoleucine--tRNA ligase, mitochondrial (Homo sapiens, UniProt Q9NSE4).
T2 sequence (Q9NSE4 whole entry): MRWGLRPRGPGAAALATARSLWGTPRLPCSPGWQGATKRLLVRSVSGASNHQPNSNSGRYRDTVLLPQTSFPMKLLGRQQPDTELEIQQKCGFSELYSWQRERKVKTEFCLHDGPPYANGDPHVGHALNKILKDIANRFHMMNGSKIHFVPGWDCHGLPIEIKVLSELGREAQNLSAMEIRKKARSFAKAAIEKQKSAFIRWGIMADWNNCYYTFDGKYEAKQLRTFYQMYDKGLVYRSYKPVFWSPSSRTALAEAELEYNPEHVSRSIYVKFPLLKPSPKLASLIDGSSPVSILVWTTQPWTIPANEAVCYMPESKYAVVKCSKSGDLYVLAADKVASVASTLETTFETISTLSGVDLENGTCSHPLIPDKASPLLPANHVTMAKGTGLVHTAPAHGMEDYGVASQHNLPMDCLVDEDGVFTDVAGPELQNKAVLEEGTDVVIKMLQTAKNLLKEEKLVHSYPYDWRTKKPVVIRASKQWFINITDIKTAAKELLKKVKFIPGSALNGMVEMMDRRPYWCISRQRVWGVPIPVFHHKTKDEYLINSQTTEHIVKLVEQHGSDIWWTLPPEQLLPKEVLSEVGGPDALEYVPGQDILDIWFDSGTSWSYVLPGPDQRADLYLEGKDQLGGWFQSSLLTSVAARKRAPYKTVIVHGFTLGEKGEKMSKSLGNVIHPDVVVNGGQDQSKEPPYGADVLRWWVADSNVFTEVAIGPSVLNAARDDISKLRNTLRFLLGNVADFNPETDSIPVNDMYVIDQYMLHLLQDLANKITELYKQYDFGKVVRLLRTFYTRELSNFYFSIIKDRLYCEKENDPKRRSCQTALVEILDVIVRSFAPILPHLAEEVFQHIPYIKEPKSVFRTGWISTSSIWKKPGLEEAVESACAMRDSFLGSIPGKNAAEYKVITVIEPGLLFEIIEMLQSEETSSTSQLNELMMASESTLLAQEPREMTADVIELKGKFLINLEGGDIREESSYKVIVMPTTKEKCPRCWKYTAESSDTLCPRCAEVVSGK

In assay [8] the target is Cell division cycle 7-related protein kinase (Homo sapiens, UniProt O00311).
Assay [9] deals with T3, Dual specificity protein kinase TTK (Homo sapiens, UniProt P33981).
T3 sequence (P33981 whole entry): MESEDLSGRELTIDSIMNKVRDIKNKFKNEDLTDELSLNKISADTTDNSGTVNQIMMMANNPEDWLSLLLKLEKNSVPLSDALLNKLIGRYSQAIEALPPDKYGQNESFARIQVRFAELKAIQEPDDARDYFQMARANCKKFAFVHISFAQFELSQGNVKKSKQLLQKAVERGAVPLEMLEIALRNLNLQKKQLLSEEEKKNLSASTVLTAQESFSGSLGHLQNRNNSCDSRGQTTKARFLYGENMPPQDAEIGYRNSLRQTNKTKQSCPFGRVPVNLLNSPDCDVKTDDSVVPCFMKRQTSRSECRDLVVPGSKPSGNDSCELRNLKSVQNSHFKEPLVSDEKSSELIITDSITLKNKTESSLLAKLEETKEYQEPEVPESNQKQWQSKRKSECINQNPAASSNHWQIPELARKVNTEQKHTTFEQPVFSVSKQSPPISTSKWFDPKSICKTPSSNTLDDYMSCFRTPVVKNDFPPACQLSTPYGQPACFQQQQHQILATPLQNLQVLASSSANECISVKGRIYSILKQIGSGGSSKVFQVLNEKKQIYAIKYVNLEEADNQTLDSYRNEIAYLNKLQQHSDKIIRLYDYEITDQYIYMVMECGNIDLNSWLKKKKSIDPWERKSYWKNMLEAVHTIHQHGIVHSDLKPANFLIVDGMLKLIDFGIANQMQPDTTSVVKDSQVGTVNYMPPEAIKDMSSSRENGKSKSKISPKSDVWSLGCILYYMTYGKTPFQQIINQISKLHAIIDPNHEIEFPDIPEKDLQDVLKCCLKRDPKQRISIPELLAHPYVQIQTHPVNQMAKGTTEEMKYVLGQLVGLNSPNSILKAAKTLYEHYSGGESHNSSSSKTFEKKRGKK

Serine/threonine-protein kinase N3, sequence (Q6P5Z2 whole entry): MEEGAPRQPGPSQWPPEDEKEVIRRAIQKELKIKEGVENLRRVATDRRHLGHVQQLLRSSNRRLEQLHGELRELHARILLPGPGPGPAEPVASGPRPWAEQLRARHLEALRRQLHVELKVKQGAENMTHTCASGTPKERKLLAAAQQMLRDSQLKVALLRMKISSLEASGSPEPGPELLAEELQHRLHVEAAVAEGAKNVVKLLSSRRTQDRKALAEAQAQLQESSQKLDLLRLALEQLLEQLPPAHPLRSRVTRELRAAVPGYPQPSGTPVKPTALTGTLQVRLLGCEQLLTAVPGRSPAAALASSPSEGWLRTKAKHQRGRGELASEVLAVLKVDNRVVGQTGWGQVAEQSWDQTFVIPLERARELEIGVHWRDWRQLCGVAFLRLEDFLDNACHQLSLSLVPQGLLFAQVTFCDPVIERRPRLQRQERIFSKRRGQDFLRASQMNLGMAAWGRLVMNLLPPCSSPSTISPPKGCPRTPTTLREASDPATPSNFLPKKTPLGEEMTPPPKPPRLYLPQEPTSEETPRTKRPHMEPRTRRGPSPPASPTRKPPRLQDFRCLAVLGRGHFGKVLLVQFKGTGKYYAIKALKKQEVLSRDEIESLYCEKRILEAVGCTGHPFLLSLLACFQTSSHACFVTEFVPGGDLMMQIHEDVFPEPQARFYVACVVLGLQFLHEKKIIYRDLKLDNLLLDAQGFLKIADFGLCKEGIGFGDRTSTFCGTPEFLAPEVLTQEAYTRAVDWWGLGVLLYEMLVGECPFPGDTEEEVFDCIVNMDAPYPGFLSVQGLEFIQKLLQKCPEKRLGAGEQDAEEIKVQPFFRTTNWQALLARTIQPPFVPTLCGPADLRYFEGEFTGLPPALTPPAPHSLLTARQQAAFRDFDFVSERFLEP
Serine/threonine-protein kinase ATR, sequence (Q13535 whole entry): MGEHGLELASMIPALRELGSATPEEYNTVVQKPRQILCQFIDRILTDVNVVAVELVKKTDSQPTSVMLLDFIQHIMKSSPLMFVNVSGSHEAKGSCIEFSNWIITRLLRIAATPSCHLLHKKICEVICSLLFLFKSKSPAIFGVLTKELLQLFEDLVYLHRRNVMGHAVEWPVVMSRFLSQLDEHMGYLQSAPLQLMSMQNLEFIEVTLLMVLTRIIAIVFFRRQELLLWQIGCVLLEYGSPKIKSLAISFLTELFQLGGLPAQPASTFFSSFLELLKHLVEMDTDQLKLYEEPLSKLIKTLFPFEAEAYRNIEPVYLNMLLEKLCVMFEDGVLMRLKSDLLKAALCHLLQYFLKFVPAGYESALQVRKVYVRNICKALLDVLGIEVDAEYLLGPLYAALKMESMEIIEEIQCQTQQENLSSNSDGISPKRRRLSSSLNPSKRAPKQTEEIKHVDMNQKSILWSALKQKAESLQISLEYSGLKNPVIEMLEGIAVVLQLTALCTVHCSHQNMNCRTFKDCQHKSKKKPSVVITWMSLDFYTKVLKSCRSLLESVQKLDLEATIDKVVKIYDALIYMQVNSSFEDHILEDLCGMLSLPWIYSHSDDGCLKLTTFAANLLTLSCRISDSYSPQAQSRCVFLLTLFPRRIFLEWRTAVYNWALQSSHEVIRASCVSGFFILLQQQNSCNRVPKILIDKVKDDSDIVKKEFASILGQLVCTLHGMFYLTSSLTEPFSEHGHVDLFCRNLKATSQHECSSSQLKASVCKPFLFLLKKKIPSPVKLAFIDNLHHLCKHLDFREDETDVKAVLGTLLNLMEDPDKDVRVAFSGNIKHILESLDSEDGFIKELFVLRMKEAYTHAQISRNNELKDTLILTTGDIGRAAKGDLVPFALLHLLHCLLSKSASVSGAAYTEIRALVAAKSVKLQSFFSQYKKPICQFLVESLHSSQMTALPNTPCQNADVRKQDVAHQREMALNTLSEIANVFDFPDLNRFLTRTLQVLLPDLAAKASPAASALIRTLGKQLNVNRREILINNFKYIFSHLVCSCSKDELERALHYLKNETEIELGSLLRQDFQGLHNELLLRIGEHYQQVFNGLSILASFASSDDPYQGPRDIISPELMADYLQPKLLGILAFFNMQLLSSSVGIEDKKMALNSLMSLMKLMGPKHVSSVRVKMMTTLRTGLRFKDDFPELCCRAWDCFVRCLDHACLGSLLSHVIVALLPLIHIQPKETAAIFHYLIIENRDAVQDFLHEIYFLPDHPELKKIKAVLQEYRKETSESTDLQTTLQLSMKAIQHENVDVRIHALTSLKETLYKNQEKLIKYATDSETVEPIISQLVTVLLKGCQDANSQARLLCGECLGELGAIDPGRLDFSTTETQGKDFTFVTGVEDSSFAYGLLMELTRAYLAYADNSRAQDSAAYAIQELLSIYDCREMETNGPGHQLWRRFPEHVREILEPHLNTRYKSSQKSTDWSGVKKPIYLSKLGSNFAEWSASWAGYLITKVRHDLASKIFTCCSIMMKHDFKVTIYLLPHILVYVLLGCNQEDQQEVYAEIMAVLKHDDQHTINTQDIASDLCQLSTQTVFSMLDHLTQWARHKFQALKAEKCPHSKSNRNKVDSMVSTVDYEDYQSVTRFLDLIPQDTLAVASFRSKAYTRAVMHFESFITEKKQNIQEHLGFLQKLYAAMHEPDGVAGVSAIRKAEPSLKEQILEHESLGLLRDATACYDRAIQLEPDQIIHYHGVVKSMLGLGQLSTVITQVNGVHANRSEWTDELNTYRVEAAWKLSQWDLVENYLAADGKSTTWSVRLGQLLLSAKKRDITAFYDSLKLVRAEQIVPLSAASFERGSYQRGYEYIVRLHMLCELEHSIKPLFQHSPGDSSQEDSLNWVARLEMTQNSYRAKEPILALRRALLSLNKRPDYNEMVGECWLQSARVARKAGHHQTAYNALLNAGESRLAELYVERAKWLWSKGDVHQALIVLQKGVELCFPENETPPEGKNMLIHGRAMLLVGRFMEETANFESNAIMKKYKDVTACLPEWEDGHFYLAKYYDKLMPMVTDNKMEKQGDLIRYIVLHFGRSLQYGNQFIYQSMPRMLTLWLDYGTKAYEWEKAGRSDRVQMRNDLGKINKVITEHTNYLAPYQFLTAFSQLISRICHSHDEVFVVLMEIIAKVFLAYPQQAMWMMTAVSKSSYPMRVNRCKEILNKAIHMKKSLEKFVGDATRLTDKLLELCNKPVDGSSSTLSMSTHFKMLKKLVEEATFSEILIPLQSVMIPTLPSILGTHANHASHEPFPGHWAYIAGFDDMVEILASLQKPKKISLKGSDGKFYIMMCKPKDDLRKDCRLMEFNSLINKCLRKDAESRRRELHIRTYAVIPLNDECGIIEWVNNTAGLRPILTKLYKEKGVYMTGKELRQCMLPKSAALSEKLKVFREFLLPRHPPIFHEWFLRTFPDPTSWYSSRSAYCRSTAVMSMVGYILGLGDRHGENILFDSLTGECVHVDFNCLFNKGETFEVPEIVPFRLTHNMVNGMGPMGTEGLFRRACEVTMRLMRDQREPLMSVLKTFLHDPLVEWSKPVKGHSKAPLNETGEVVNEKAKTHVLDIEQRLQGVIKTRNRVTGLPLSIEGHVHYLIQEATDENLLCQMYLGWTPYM
Cell division cycle 7-related protein kinase, sequence (O00311 whole entry): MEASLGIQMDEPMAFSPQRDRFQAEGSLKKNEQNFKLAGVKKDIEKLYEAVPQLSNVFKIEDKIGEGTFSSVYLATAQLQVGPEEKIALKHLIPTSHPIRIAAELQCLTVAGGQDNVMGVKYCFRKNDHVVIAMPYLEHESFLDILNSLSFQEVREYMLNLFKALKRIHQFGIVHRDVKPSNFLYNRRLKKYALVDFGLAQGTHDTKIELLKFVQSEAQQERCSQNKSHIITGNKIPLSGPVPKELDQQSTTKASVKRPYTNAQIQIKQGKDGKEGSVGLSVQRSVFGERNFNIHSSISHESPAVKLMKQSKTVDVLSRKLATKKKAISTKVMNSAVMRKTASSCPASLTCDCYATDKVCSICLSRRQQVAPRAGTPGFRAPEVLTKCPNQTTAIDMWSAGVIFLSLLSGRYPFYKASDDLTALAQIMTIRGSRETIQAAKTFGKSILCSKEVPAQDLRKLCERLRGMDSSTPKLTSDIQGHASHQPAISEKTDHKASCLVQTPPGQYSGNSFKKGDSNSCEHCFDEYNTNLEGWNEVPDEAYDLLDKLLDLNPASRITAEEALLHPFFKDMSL
Serine/threonine-protein kinase 38-like, sequence (Q9Y2H1 whole entry): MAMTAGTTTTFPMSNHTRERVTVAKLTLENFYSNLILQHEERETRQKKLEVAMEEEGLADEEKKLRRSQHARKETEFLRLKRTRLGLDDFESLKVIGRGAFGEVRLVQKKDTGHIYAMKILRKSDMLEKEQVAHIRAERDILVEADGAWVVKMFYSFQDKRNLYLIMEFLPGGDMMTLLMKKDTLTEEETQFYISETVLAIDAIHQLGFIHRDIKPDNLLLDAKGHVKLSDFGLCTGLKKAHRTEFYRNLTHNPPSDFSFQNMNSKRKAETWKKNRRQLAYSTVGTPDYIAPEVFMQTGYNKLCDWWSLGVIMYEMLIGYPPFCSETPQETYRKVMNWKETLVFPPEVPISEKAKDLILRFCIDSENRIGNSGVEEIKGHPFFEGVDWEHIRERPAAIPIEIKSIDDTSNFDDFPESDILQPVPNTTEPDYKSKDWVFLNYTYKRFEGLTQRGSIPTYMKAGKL
MAP kinase-activated protein kinase 3, sequence (Q16644 whole entry): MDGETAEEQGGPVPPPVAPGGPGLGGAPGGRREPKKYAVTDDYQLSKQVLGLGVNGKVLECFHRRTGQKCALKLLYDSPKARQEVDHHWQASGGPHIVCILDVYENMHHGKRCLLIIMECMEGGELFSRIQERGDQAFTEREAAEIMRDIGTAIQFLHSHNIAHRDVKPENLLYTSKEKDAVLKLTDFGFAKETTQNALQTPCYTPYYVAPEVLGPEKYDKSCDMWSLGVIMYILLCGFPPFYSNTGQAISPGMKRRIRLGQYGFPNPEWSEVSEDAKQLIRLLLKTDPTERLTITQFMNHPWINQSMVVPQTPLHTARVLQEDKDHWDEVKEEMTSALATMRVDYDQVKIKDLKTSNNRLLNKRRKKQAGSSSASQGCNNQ

In the case of `Cc1nc2cc(-c3nn(C(C)C)c4ncnc(N)c34)ccc2o1`, the Kd in [1] was > 30 µM (inactive); in assay [2] it was > 30 µM (inactive); in [3] it was > 30 µM (inactive); in assay [4] it was > 30 µM (inactive); in [5], 0.013 µM; in [6] it was > 30 µM (inactive). For the same compound, the Kd in assay [7] is > 30 µM (inactive).
Regarding `Nc1ncnc2c1c(-c1cccc(OCc3ccccc3)c1)cn2[C@H]1C[C@@H](CN2CCC2)C1` [AEW-541], the Kd in assay [1] was > 30 µM (inactive); in assay [2], > 30 µM (inactive); in assay [3], > 30 µM (inactive); in assay [4] it was 0.005 µM; in [5], 0.023 µM; in assay [6], > 30 µM (inactive).
`Cn1cnc2c(F)c(Nc3ccc(Br)cc3F)c(C(=O)NOCCO)cc21` [BINIMETINIB]: the Kd in assay [1], in [8], in assay [2], in assay [3], in [4] and in assay [5] was > 30 µM (inactive) throughout.
As for `Cc1cc(Nc2ncc(Cl)c(Nc3ccccc3S(=O)(=O)C(C)C)n2)c(OC(C)C)cc1C1CCNCC1` [CERITINIB], the Kd in assay [1], in assay [9], in [2], in assay [3], in assay [4] and in assay [5] was > 30 µM (inactive) in each case. Also, the Kd in [6] was > 30 µM (inactive).
Consider `COCC(=O)NC/C=C/c1ccc2ncnc(Nc3ccc(Oc4ccc(C)nc4)c(C)c3)c2c1` [CP-724714], for which the Kd in assay [1], in [8], in assay [2], in assay [3], in assay [4] and in [5] was > 30 µM (inactive) in each case. The Kd in [6] and in [7] was > 30 µM (inactive) throughout.
As to `COc1ncc(-c2ccc3nccc(-c4ccnnc4)c3c2)cc1NS(=O)(=O)c1ccc(F)cc1F` [OMIPALISIB], the Kd in assay [1], in assay [9], in [8], in assay [2], in assay [3] and in [4] was > 30 µM (inactive) each time. Also, the Kd in assay [7] was > 30 µM (inactive).
Consider `CCOc1cc2ncc(C#N)c(Nc3ccc(F)c(Cl)c3)c2cc1NC(=O)/C=C/CN(C)C` [PELITINIB], for which the Kd in [1], in assay [9], in assay [8], in [2], in assay [5] and in [6] was > 30 µM (inactive) in each case. The Kd in assay [7] is > 30 µM (inactive).
In the case of `N#CC1(c2ccc(NC(=O)c3cccnc3NCc3ccncc3)cc2)CCCC1` [RIVOCERANIB], the Kd in assay [9], in assay [8], in [2], in assay [3], in assay [4] and in [6] was > 30 µM (inactive) in each case. For the same compound, the Kd in assay [7] was > 30 µM (inactive).
For `CO[C@H]1C[C@@H]2CC[C@@H](C)[C@@](O)(O2)C(=O)C(=O)N2CCCC[C@H]2C(=O)O[C@H]([C@H](C)C[C@@H]2CC[C@@H](OC(=O)C(C)(CO)CO)[C@H](OC)C2)CC(=O)[C@H](C)/C=C(\C)[C@@H](O)[C@@H](OC)C(=O)[C@H](C)C[C@H](C)/C=C/C=C/C=C/1C` [TEMSIROLIMUS], the Kd in [1], in assay [9], in assay [8], in assay [2], in [3] and in assay [4] was > 30 µM (inactive) throughout. The Kd in assay [5], in assay [6] and in assay [7] was > 30 µM (inactive) throughout.
Consider `O=C1NC(=O)[C@@H](c2cn3c4c(cccc24)CCC3)[C@@H]1c1c[nH]c2ccccc12` [TIVANTINIB], for which the Kd in [1], in assay [2], in [3] and in [6] was > 30 µM (inactive) throughout.
For the compound `C[C@@H](N)c1ccc(C(=O)Nc2ccnc3[nH]ccc23)cc1` [Y-39983], the Kd in assay [1], in assay [8], in [2], in [3], in assay [4] and in assay [5] was > 30 µM (inactive) each time. Besides, the Kd in [6] and in [7] was > 30 µM (inactive) throughout.

As a reminder, the Kd is a measure of binding affinity in units of concentration.
